Data: patent US12139481B2, “Compositions comprising macrocycle derivatives incorporating bridged macrocycles and methods of producing and using same” (Southwestern Oklahoma State University, priority 2015, dated 2024)
“And” between values parts separate entries of the source, which are not always exact repeats. Equal entries are not always repeated.

What was measured:
[1] = system: Cryptococcus neoformans ATCC 90113; assay: Antimicrobial microdilution assay against Cryptococcus neoformans (modified CLSI/NCCLS, optical density); type: cell-based; details: for X more potent than Amphotericin B: C. neoformans, ratio of molar IC50 to Amphotericin B; for C. neoformans IC50 / IC50: in vitro, C. neoformans ATCC 90113; for IC50: read-out: C. neoformans IC50 (mol/L)
Summary of the method: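 Broth microdilution (modified CLSI) in RPMI pH 6.0, samples serially diluted in 20% DMSO/saline and tested in duplicate, growth followed by OD630 before and after incubation. MFC is the lowest concentration giving no growth when 5 μL from clear wells is plated on agar.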

[2] = system: S. mansoni newly transformed schistosomula (NTS); assay: In vitro testing on Schistosoma mansoni newly transformed schistosomula (NTS), viability score; type: cell-based; details: NTS S. mansoni, 33 μM, 72 h
Description: Assays were prepared according to the laboratory SOP for the lab of Dr. Jennifer Keiser (Swiss Tropical and Public Health Institute, Basel). Harvested S. mansoni cercariae (Liberian strain) obtained from infected Biomphalaria glabrata snails were mechanically transformed into newly transformed schistosomula (NTS) following standard procedures. Briefly, snails were placed under light in the morning to stimulate cercarial shedding. The cercarial suspension was collected, cooled for 30 minutes, and then vigorously pipetted (30×) and vortexed (3 minutes). The suspension was then placed in the incubator (37° C. and 5% CO2) for 30 minutes, and the vortexing and pipetting steps were repeated. The transformation was complete at this point, and the tails were separated from the heads by rinsing three times with cold HBSS. NTS were then incubated overnight in culture medium overnight and used the next day.
The original stock compounds (which were not already dissolved) were dissolved in dimethyl sulfoxide (DMSO) to a concentration of 10 mM. 100 NTS were placed in each well of a 96-well plate with culture medium, and the test compound for a final well volume of 250 μl. […] NTS incubated with no more than 1% DMSO served as control. NTS were kept in an incubator at 37° C. and 5% CO2 for up to 72 hours. After 72 hours, the condition of the NTS was microscopically evaluated using a scale from 3 (normal activity and no tegument alteration) to 0 (dead, completely granulated).

[3] = system: L. donovani promastigotes; assay: Antileishmanial Alamar Blue assay on promastigotes; type: cell-based, Leishmania donovani; details: for X more potent than Pentamidine: L. donovani, ratio of molar IC50 to Pentamidine; for L. donovani IC50 / IC50: promastigotes, 48 hours, Alamar Blue; for IC50: read-out: L. donavani IC50
Summary of the method: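 L. donovani promastigotes in RPMI 1640 with 10% FCS, from 3-day culture, were set at 5×10^5/mL and exposed to compound (50-3.1 μg/mL) for 48 hours at 26° C. Growth read by Alamar Blue fluorescence (ex 544/em 590 nm); IC50 from percent growth versus concentration.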

C. glabrata ATCC 90030 = assay: Antifungal broth dilution assay against C. glabrata (modified CLSI); type: cell-based, Candida glabrata; details: for C. glabrata IC50 / IC50: in vitro; for IC50: converted with molecular weight; for X more potent than Amphotericin B: molar IC50 ratio versus amphotericin B
Summary of the method: (§1)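 Modified CLSI broth microdilution with OD monitoring before and after incubation at 35 °C: Candida in RPMI 1640/MOPS pH 6.0, 1.5×10^3 CFU/ml, 46-50 h; Staphylococcus in cation-adjusted Mueller-Hinton pH 7.3, 5.0×10^5 CFU/ml, 16-20 h. IC50 from curve fit; MIC is the lowest concentration with no growth; MFC/MBC from subculture.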

[4] = system: Staphylococcus aureus ATCC 29213; assay: Antibacterial broth dilution assay against S. aureus (modified CLSI); type: cell-based; details: for S. aureus IC50 / IC50: in vitro; for IC50: converted with molecular weight; for X more potent than ciprofloxacen: molar IC50 ratio versus ciprofloxacen
Summary of the method: as §1

[5] = system: methicillin-resistant S. aureus ATCC 33591 (MRS); assay: Antibacterial broth dilution assay against MRSA (modified CLSI); type: cell-based, Staphylococcus aureus; details: for MRSa IC50 / IC50: in vitro; for IC50: converted with molecular weight; for X more potent than ciprofloxacen: molar IC50 ratio versus ciprofloxacen
Description: General Experimental Procedures. All organisms were obtained from the American Type Culture Collection (Manassas, VA) and include the fungi Candida albicans ATCC 90028, C. glabrata ATCC 90030, C. krusei ATCC 6258, and Cryptococcus neoformans ATCC 90113, and the bacteria Staphylococcus aureus ATCC 29213 and methicillin-resistant S. aureus ATCC 33591 (MRS). All organisms were tested using modified versions of the CLSI (formerly NCCLS) methods. For all organisms, optical density was used to monitor growth (NCCLS, Reference Method for Broth Dilution Antifungal Susceptibility Testing of Yeasts; Approved Standard M27-A2. National Committee on Clinical Laboratory Standards, 2002 22 (15); and NCCLS, Methods for Dilution Antimicrobial Susceptibility Tests for Bacteria that Grow Aerobically; Approved Standard, Seventh Edition M7-A7. National Committee on Clinical Laboratory Standards, 2006. 26(2)).
Samples (dissolved in DMSO) were serially-diluted in 20% DMSO/saline and transferred (10 μL) in duplicate to 96 well flat bottom microplates. Inocula were prepared by correcting the OD630 of microbe suspensions in incubation broth [RPMI 1640/0.2% dextrose/0.03% glutamine/MOPS @ pH 6.0 (Cellgro) for Candida spp., Sabouraud Dextrose for C. neoformans, and cation-adjusted Mueller-Hinton (Difco) @ pH 7.3 for Staphylococcus spp. to afford an assay volume of […] and final target inocula of: Candida spp. and C. neoformans: 1.5×10^3, and Staphylococcus spp.: 5.0×10^5 CFU/ml. Final sample test concentrations were 1/100th the DMSO stock concentration. […] All organisms were read at either 530 nm using the Biotek Powerwave XS plate reader (Bio-Tek Instruments, Vermont) prior to and after incubation: Candida spp. at 35° C. for 46-50 h, Staphylococcus spp. at 35° C. for 16-20 h, and C. neoformans at 35° C. for 70-74 h. IC50s (concentrations that afford 50% inhibition relative to controls) were calculated using XLfit 4.2 software (IDBS, Alameda, CA) using fit model 201. The MIC is defined as the lowest test concentration that allows no detectable growth. Minimum fungicidal or bactericidal concentrations were determined by removing 5 μl from each clear (or blue) well, transferring to fresh media, and incubating as previously mentioned. The MFC/MBC is defined as the lowest test concentration that kills the organism (allows no growth).
Primary Analysis. Samples were tested in duplicate at one test concentration (50 μg/mL), and percent inhibitions were calculated relative to blank and growth controls. Samples showing 50% inhibition in at least one test organism were selected for dose response (Secondary) studies.
Secondary Analysis. Extracts from the Primary Assay, and first-run pure compounds and column fractions were tested in duplicate at 3 test concentrations (5-fold dilutions). Samples dissolved to 20 mg/mL in DMSO were tested at 200, 40, and 8 μg/mL. Samples dissolved to 2 mg/mL in DMSO were tested at 20, 4, and 0.8 μg/mL.

C. krusei ATCC 6258 = assay: Antifungal broth dilution assay against C. krusei (modified CLSI); type: cell-based, Candida krusei
Summary of the method: as §1

Row | Molecule | X more potent than Amphotericin B [1] | C. neoformans IC50 [1] | IC50 [1] | Effect at 72 h (%) [2] | also measured
1 | CC(=O)[O-].CC(=O)[O-].CN1CCCN2CCN(CCCN(Cc3cccc(CN4CCCN5CCN(C)CCCN(CC5)CC4)c3)CC2)CC1.F[P-](F)(F)(F)(F)F.F[P-](F)(F)(F)(F)F.F[P-](F)(F)(F)(F)F.F[P-](F)(F)(F)(F)F.[Co+3].[Co+3] [CDG010, [Co2(m-CB-Cyclams)(OAc)2][PF6]4] | 0.35 | 0.960 µg/mL | 0.686 µM | 11.71% | –
2 | CC(=O)[O-].CC(=O)[O-].CC(=O)[O-].CN1CCN2CCN(CC1)CCN(Cc1cc(CN3CCN4CCN(C)CCN(CC4)CC3)cc(CN3CCN4CCN(C)CCN(CC4)CC3)c1)CC2.F[P-](F)(F)(F)(F)F.F[P-](F)(F)(F)(F)F.F[P-](F)(F)(F)(F)F.O.O.O.O.O.O.[Zn+2].[Zn+2].[Zn+2] [BNS22, [Zn3(tris-CB-Cyclens)(OAc)3][PF6]3•6H2O] | 0.12 | 3.410 µg/mL | – | 11.71% | –
3 | CC(=O)[O-].CC(=O)[O-].F[P-](F)(F)(F)(F)F.F[P-](F)(F)(F)(F)F.[Cu+2].[Cu+2].c1cc(CN2CCNCCN3CCN(CC3)CC2)ccc1CN1CCNCCN2CCN(CC2)CC1 [OB28, [Cu2(p-SB-Cyclens)(OAc)2][PF6]2] | 0.05 | 5.210 µg/mL | 5.04 µM | 0.00% | –
4 | [Co2(p-CB-cyclam-cyclen)(OAc)2][PF6]2 [CMB027] | 0.32 | ≤ 0.800 µg/mL | 0.74 µM | – | X more potent than Pentamidine [3]: 0.18; L. donovani IC50 [3]: 32.62 µg/mL; IC50 [3]: 30.2 µM; C. glabrata IC50 (C. glabrata ATCC 90030): 1.320 µg/mL; IC50 (C. glabrata ATCC 90030): 1.22 µM; X more potent than Amphotericin B (C. glabrata ATCC 90030): 1.16; S. aureus IC50 [4]: 7.36 µg/mL; IC50 [4]: 6.81 µM; X more potent than ciprofloxacen [4]: 0.04; MRSa IC50 [5]: 5.390 µg/mL; IC50 [5]: 4.99 µM; X more potent than ciprofloxacen [5]: 0.04
5 | CN1CCN2CCN(C)CCN(CC1)CC2.F[P-](F)(F)(F)(F)F.[Cl-].[Cl-].[Mn+3] [CNV06, [Mn(Bcyclen)Cl2]PF6] | 0.02 | 6.390 µg/mL and 5.579 µg/mL | 12.8 µM and 11.2 µM | 0.00% | –
6 | CC(=O)[O-].CC(=O)[O-].CN1CCN2CCN(CC1)CCN(Cc1cccc(CN3CCN4CCN(C)CCN(CC4)CC3)c1)CC2.F[P-](F)(F)(F)(F)F.F[P-](F)(F)(F)(F)F.[Zn+2].[Zn+2] [DJC07, [Zn2(m-CB-Cyclens)(OAc)2][PF6]2] | 0.03 | 7.410 µg/mL | – | 0.00% | –
7 | CC(=O)[O-].CC(=O)[O-].CC(=O)[O-].CN1CCCN2CCN(CCCN(Cc3cc(CN4CCCN5CCN(C)CCCN(CC5)CC4)cc(CN4CCCN5CCN(C)CCCN(CC5)CC4)c3)CC2)CC1.F[P-](F)(F)(F)(F)F.F[P-](F)(F)(F)(F)F.F[P-](F)(F)(F)(F)F.[Cu+2].[Cu+2].[Cu+2] [BNS025] | – | – | – | 18.02% | –
8 | CC(=O)[O-].CC(=O)[O-].F[P-](F)(F)(F)(F)F.F[P-](F)(F)(F)(F)F.O.[Ni+2].[Ni+2].c1cc(CN2CCNCCN3CCN(CC3)CC2)ccc1CN1CCNCCN2CCN(CC2)CC1 [OB29, [Ni2(p-SB-Cyclens)(OAc)2][PF6]2•H2O] | 0.31 | ≤ 0.800 µg/mL | 0.768 µM | 5.41% | –
9 | c1c(CN2CCCN3CCN(CCCNCC2)CC3)cc(CN2CCCN3CCN(CCCNCC2)CC3)cc1CN1CCCN2CCN(CCCNCC1)CC2 [CDG019] | – | – | – | 0.00% | –
10 | F[P-](F)(F)(F)(F)F.F[P-](F)(F)(F)(F)F.F[P-](F)(F)(F)(F)F.F[P-](F)(F)(F)(F)F.F[P-](F)(F)(F)(F)F.F[P-](F)(F)(F)(F)F.[Ni+2].[Ni+2].[Ni+2].c1c(CN2CCCN3CCN(CCCNCC2)CC3)cc(CN2CCCN3CCN(CCCNCC2)CC3)cc1CN1CCCN2CCN(CCCNCC1)CC2 [CDG024, [Ni3(tris-SB-Cyclams)][PF6]6] | 0.18 | 2.440 µg/mL | 1.33 µM | 5.41% | –
11 | [Zn2(m-SB-Cyclams)(OAc)2][PF6]2 [KS26] | 0.02 | 12.510 µg/mL | 12.1 µM | 11.71% | –
12 | CC(=O)[O-].CN1CCCN2CCN(CCCN(Cc3ccccc3)CC2)CC1.F[P-](F)(F)(F)(F)F.[Co+2] [TRH016] | – | – | – | 11.71% | –
13 | m-SB-cyclens HCl salt [OB25B] | 0.74 | 0.300 µg/mL | 0.324 µM | – | X more potent than Pentamidine [3]: 0.43; L. donovani IC50 [3]: 11.45 µg/mL; IC50 [3]: 12.4 µM; X more potent than Amphotericin B (C. krusei ATCC 6258; C. krusei, ratio of molar IC50 to amphotericin B): 0.21; C. krusei IC50 (C. krusei ATCC 6258; in vitro): 6.530 µg/mL; IC50 (C. krusei ATCC 6258; in vitro, read-out: C. krusei IC50 (mol/L)): 7.05 µM; S. aureus IC50 [4]: 5.940 µg/mL; IC50 [4]: 6.41 µM; X more potent than ciprofloxacen [4]: 0.04; MRSa IC50 [5]: 5.450 µg/mL; IC50 [5]: 5.88 µM; X more potent than ciprofloxacen [5]: 0.04
14 | [Zn2(p-CB-cyclam-cyclen)(OAc)][PF6]3•4H2O [CMB030] | 0.22 | 1.380 µg/mL | 1.1 µM | – | X more potent than Pentamidine [3]: 0.21; L. donovani IC50 [3]: 31.32 µg/mL; IC50 [3]: 25 µM; C. glabrata IC50 (C. glabrata ATCC 90030): 4.190 µg/mL; IC50 (C. glabrata ATCC 90030): 3.35 µM; X more potent than Amphotericin B (C. glabrata ATCC 90030): 0.42; S. aureus IC50 [4]: 7.86 µg/mL; IC50 [4]: 6.28 µM; X more potent than ciprofloxacen [4]: 0.04; MRSa IC50 [5]: 8.760 µg/mL; IC50 [5]: 7 µM; X more potent than ciprofloxacen [5]: 0.03
15 | c1c(CN2CCNCCN3CCN(CC3)CC2)cc(CN2CCNCCN3CCN(CC3)CC2)cc1CN1CCNCCN2CCN(CC2)CC1 [CDG029] | – | – | – | 24.32% | –
